According to ChEMBL document CHEMBL5380782, “Design, Biological Evaluation, and Computer-Aided Analysis of Dihydrothiazepines as Selective Antichlamydial Agents” (J Med Chem, 2023):

Experiments:
[1] = Mutagenicity in Salmonella typhimurium TA100 assessed as number of revertants per plate at 150 ug pretreated for 90 mins measured after 66 hrs by AMES test (reference value: 206 +/- 7.07); format: toxicity, Salmonella enterica subsp. enterica serovar Typhimurium; conditions: in vivo, 67.5 h, dose 150 µg
[2] = Mutagenicity in Salmonella typhimurium TA100 assessed as number of revertants per plate at 5000 ug pretreated for 90 mins measured after 66 hrs in presence of S9 by AMES test (reference value: 201 +/- 9.90); format: toxicity, Salmonella enterica subsp. enterica serovar Typhimurium; conditions: in vivo, 67.5 h, dose 5000 µg
[3] = Mutagenicity in Salmonella typhimurium TA100 assessed as mutagenic index ratio at 50 ug pretreated for 90 mins measured after 66 hrs in presence of S9 by AMES test; format: toxicity, Salmonella enterica subsp. enterica serovar Typhimurium; conditions: in vivo, 67.5 h, dose 50 µg
[4] = Mutagenicity in Salmonella typhimurium TA100 assessed as number of revertants per plate at 5000 ug pretreated for 90 mins measured after 66 hrs by AMES test (reference value: 206 +/- 7.07); format: toxicity, Salmonella enterica subsp. enterica serovar Typhimurium; conditions: in vivo, 67.5 h, dose 5000 µg
Candida albicans = test: Antimicrobial activity against Candida albicans 90028 assessed as microbial growth inhibition by broth microdilution method; format: functional
[5] = Mutagenicity in Salmonella typhimurium TA98 assessed as mutagenic index ratio at 1500 ug pretreated for 90 mins measured after 66 hrs in presence of S9 fraction by AMES test; format: toxicity, subcellular, Salmonella enterica subsp. enterica serovar Typhimurium; conditions: s9, 67.5 h, dose 1500 µg
Thomasclavelia ramosa = test: Antimicrobial activity against Clostridium ramosum DSM 1402 assessed as microbial growth inhibition incubated for 48 hrs; format: functional
Pichia kudriavzevii = test: Antimicrobial activity against Pichia kudriavzevii 6558 assessed as microbial growth inhibition by broth microdilution method; format: functional
[6] = Mutagenicity in Salmonella typhimurium TA100 assessed as number of revertants per plate at 500 ug pretreated for 90 mins measured after 66 hrs by AMES test (reference value: 206 +/- 7.07); format: toxicity, Salmonella enterica subsp. enterica serovar Typhimurium; conditions: in vivo, 67.5 h, dose 500 µg
Chlamydia trachomatis [7] = test: Inhibition of recombinant Chlamydia trachomatis ClpX ATPase activity assessed as reduction in ATP consumption at 25 ug/ml incubated for 60 mins by Kinase Glo assay relative to control; conditions: dose 25.0 µg/ml
Candida tropicalis = test: Antimicrobial activity against Candida tropicalis 750 assessed as microbial growth inhibition by broth microdilution method; format: functional
[8] = tested on: Lacticaseibacillus rhamnosus; test: Antimicrobial activity against Lactobacillus rhamnosus CGMCC 1.3724 assessed as microbial growth inhibition incubated for 24 hrs by TTC staining based assay; format: functional
[9] = Mutagenicity in Salmonella typhimurium TA98 assessed as number of revertants per plate at 50 ug pretreated for 90 mins measured after 66 hrs by AMES test (reference value: 25.67 +/- 5.51); format: toxicity, Salmonella enterica subsp. enterica serovar Typhimurium; conditions: in vivo, 67.5 h, dose 50 µg
[10] = Mutagenicity in Salmonella typhimurium TA100 assessed as mutagenic index ratio at 5000 ug pretreated for 90 mins measured after 66 hrs by AMES test; format: toxicity, Salmonella enterica subsp. enterica serovar Typhimurium; conditions: in vivo, 67.5 h, dose 5000 µg
[11] = Stability of compound in simulated intestinal fluid assessed as compound remaining at 2 mg/ml measured after 24 hrs by HPLC analysis; format: ADME; conditions: read-out: Stability
[12] = Mutagenicity in Salmonella typhimurium TA100 assessed as mutagenic index ratio at 150 ug pretreated for 90 mins measured after 66 hrs in presence of S9 by AMES test; format: toxicity, Salmonella enterica subsp. enterica serovar Typhimurium; conditions: in vivo, 67.5 h, dose 150 µg
[13] = Cytotoxicity against HEK293 cells assessed as cell viability at 25 ug/ml incubated for 20 hrs by XTT assay relative to control; format: toxicity, cell-based; conditions: human, at 25 µg/mL, read-out: Activity
[14] = Mutagenicity in Salmonella typhimurium TA100 assessed as number of revertants per plate at 50 ug pretreated for 90 mins measured after 66 hrs in presence of S9 by AMES test (reference value: 201 +/- 9.90); format: toxicity, Salmonella enterica subsp. enterica serovar Typhimurium; conditions: in vivo, 67.5 h, dose 50 µg
Acinetobacter baumannii = test: Antimicrobial activity against Acinetobacter baumannii 2208 assessed as microbial growth inhibition incubated for 24 hrs by TTC staining based assay; format: functional
[15] = Mutagenicity in Salmonella typhimurium TA98 assessed as number of revertants per plate at 50 ug pretreated for 90 mins measured after 66 hrs in presence of S9 fraction by AMES test (reference value: 24.33 +/- 9.50); format: toxicity, subcellular, Salmonella enterica subsp. enterica serovar Typhimurium; conditions: s9, 67.5 h, dose 50 µg
[16] = Mutagenicity in Salmonella typhimurium TA98 assessed as number of revertants per plate at 500 ug pretreated for 90 mins measured after 66 hrs in presence of S9 fraction by AMES test (reference value: 24.33 +/- 9.50); format: toxicity, subcellular, Salmonella enterica subsp. enterica serovar Typhimurium; conditions: s9, 67.5 h, dose 500 µg
Chlamydia trachomatis [17] = test: Antibacterial activity against Chlamydia trachomatis L2 infected in HEp-2 cells assessed as reduction in number of chlamydial inclusion incubated for 24 hrs by fluorescence microscopy; format: functional, organism-based; conditions: dose 1.56-12.5 µg/ml
[18] = Mutagenicity in Salmonella typhimurium TA98 assessed as number of revertants per plate at 500 ug pretreated for 90 mins measured after 66 hrs by AMES test (reference value: 25.67 +/- 5.51); format: toxicity, Salmonella enterica subsp. enterica serovar Typhimurium; conditions: in vivo, 67.5 h, dose 500 µg
[19] = Stability of compound in simulated gastric fluid assessed as compound remaining at 2 mg/ml measured after 180 mins by HPLC analysis; format: ADME; conditions: read-out: Stability
[20] = Mutagenicity in Salmonella typhimurium TA98 assessed as number of revertants per plate at 1500 ug pretreated for 90 mins measured after 66 hrs in presence of S9 fraction by AMES test (reference value: 24.33 +/- 9.50); format: toxicity, subcellular, Salmonella enterica subsp. enterica serovar Typhimurium; conditions: s9, 67.5 h, dose 1500 µg
[21] = Mutagenicity in Salmonella typhimurium TA98 assessed as mutagenic index ratio at 5000 ug pretreated for 90 mins measured after 66 hrs in presence of S9 fraction by AMES test; format: toxicity, subcellular, Salmonella enterica subsp. enterica serovar Typhimurium; conditions: s9, 67.5 h, dose 5000 µg
Staphylococcus aureus = test: Antimicrobial activity against Staphylococcus aureus USA 300 JE2 assessed as microbial growth inhibition incubated for 24 hrs by TTC staining based assay; format: functional
[22] = Mutagenicity in Salmonella typhimurium TA100 assessed as mutagenic index ratio at 1500 ug pretreated for 90 mins measured after 66 hrs in presence of S9 by AMES test; format: toxicity, Salmonella enterica subsp. enterica serovar Typhimurium; conditions: in vivo, 67.5 h, dose 1500 µg
[23] = tested on: Bacteroides thetaiotaomicron; test: Antimicrobial activity against Bacteroides thetaiotaomicron DSM 2079 assessed as microbial growth inhibition incubated for 48 hrs; format: functional
[24] = Mutagenicity in Salmonella typhimurium TA100 assessed as number of revertants per plate at 50 ug pretreated for 90 mins measured after 66 hrs by AMES test (reference value: 206 +/- 7.07); format: toxicity, Salmonella enterica subsp. enterica serovar Typhimurium; conditions: in vivo, 67.5 h, dose 50 µg
[25] = Mutagenicity in Salmonella typhimurium TA100 assessed as mutagenic index ratio at 500 ug pretreated for 90 mins measured after 66 hrs by AMES test; format: toxicity, Salmonella enterica subsp. enterica serovar Typhimurium; conditions: in vivo, 67.5 h, dose 500 µg
Anaerostipes caccae = test: Antimicrobial activity against Anaerostipes caccae […] assessed as microbial growth inhibition incubated for 48 hrs; format: functional
[26] = Stability of compound in human serum assessed as compound remaining at 2 mg/ml measured after 24 hrs by HPLC analysis; format: ADME, cell-free; conditions: read-out: Stability
Chlamydia trachomatis [27] = test: Antibacterial activity against Chlamydia trachomatis serovar L2 infected in HEp-2 cells assessed as bacterial growth inhibition incubated for 16 hrs by IFA assay; format: functional, organism-based; conditions: serovar L2, HEp-2, 16 h

N#Cc1ccccc1C1Sc2ccccc2NC2=C1C(=O)c1ccccc12 (stereo not given)
Activity [1]: 187.5 | Activity [2]: 227 | Ratio [3]: 0.92 | Activity [4]: 241 | MIC (Candida albicans): > 1000 µg/mL | Ratio [5]: 1.25 | MIC (Thomasclavelia ramosa): > 125 µg/mL | MIC (Pichia kudriavzevii): > 1000 µg/mL | Activity [6]: 233 | inhibition (Chlamydia trachomatis [7]): 20% | MIC (Candida tropicalis): > 1000 µg/mL | MIC [8]: > 125 µg/mL | Activity [9]: 26 | Ratio [10]: 1.16 | remaining at 24 h, 2 mg/ml [11]: 85% | Ratio [12]: 0.93 | viability at 20 h, 25 ug/ml [13]: 84% | Activity [14]: 185 | MIC (Acinetobacter baumannii): > 125 µg/mL | Activity [15]: 32 | Activity [16]: 43.5 | Activity (Chlamydia trachomatis [17]): Dose-Dependent Effect | Activity [18]: 38 | remaining at 3 h, 2 mg/ml [19]: 90% | Activity [20]: 30.5 | Ratio [21]: 1.78 | MIC (Staphylococcus aureus): > 125 µg/mL | Ratio [22]: 0.98 | MIC [23]: > 125 µg/mL | Activity [24]: 190.5 | Ratio [25]: 1.13 | MIC (Anaerostipes caccae): > 125 µg/mL | remaining at 24 h, 2 mg/ml [26]: 80% | IC50 (Chlamydia trachomatis [27]; read-out: IC50): 1.61 µg/mL | IC50 (Chlamydia trachomatis [27]; read-out: pIC50 (converted)): 4.37 µM
